Measurements: patent publication US12258328B2, “6-membered heteroaryl-containing aminopyridine compounds as EGFR inhibitors” (YUHAN CORPORATION, priority 2021, dated 2025)
Where two headings read alike, the source gives them in different places.

Columns and labels:
EGFR L858R/C797S = EGFR L858R/C797S (Homo sapiens, UniProt P00533, C797S/L858R); assay: Biochemical EGFR kinase assay (Lance Ultra TR-FRET), double mutant L858R/C797S
Method in brief: (§1)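 Enzyme reactions lasted 1 hour at room temperature with test compounds between 0.003 and 10 μM, followed by 10 mM EDTA quench.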

EGFR L858R/T790M/C797S = EGFR L858R/T790M/C797S (Homo sapiens, UniProt P00533, C797S/L858R/T790M); assay: Biochemical EGFR kinase assay (Lance Ultra TR-FRET), triple mutant L858R/T790M/C797S
Method in brief: as §1

EGFR del19/C797S = EGFR del19/C797S (Homo sapiens, UniProt P00533, C797S/DEL746-750); assay: Biochemical EGFR kinase assay (Lance Ultra TR-FRET), double mutant del19/C797S
Method in brief: as §1

EGFR del19/T790M/C797S = EGFR del19/T790M/C797S (Homo sapiens, UniProt P00533, C797S/DEL746-750/T790M); assay: Biochemical EGFR kinase assay (Lance Ultra TR-FRET), triple mutant del19/T790M/C797S
Method in brief: as §1

EGFR wildtype = EGFR wildtype (Homo sapiens, UniProt P00533); assay: Biochemical EGFR kinase assay (Lance Ultra TR-FRET), wildtype
Method in brief: as §1

[1] = ATP at Km, read-out: IC50 L858R/C797S, Km ATP
[2] = ATP at Km, read-out: IC50 L858R/T790M/C797S, Km ATP
[3] = ATP at Km, read-out: IC50 del19/C797S, Km ATP
[4] = ATP at Km, read-out: IC50 del19/T790M/C797S, Km ATP
[5] = ATP at Km, read-out: IC50 WT, Km ATP
[6] = Km ATP, read-out: IC50 L858R/C797S (nM) Km ATP
[7] = Km ATP, read-out: IC50 L858R/T790M/C797S (nM) Km ATP
[8] = Km ATP, read-out: IC50 del19/C797S (nM) Km ATP
[9] = Km ATP, read-out: IC50 del19/T790M/C797S (nM) Km ATP
[10] = Km ATP, read-out: IC50 WT (nM) Km ATP
[11] = IC50 L858R/T790M/C797S, 100 μM ATP
[12] = IC50 del19/T790M/C797S, 100 μM ATP
[13] = IC50 L858R/C797S (nM) 100 μM ATP, 100 μM ATP
[14] = IC50 L858R/T790M/C797S (nM) 100 μM ATP, 100 μM ATP
[15] = IC50 del19/C797S (nM) 100 μM ATP, 100 μM ATP
[16] = IC50 del19/T790M/C797S (nM) 100 μM ATP, 100 μM ATP
[17] = IC50 WT (nM) 100 μM ATP, 100 μM ATP

Chain of EGFR L858R/T790M/C797S (P00533 25-1210 T790M/C797S/L858R): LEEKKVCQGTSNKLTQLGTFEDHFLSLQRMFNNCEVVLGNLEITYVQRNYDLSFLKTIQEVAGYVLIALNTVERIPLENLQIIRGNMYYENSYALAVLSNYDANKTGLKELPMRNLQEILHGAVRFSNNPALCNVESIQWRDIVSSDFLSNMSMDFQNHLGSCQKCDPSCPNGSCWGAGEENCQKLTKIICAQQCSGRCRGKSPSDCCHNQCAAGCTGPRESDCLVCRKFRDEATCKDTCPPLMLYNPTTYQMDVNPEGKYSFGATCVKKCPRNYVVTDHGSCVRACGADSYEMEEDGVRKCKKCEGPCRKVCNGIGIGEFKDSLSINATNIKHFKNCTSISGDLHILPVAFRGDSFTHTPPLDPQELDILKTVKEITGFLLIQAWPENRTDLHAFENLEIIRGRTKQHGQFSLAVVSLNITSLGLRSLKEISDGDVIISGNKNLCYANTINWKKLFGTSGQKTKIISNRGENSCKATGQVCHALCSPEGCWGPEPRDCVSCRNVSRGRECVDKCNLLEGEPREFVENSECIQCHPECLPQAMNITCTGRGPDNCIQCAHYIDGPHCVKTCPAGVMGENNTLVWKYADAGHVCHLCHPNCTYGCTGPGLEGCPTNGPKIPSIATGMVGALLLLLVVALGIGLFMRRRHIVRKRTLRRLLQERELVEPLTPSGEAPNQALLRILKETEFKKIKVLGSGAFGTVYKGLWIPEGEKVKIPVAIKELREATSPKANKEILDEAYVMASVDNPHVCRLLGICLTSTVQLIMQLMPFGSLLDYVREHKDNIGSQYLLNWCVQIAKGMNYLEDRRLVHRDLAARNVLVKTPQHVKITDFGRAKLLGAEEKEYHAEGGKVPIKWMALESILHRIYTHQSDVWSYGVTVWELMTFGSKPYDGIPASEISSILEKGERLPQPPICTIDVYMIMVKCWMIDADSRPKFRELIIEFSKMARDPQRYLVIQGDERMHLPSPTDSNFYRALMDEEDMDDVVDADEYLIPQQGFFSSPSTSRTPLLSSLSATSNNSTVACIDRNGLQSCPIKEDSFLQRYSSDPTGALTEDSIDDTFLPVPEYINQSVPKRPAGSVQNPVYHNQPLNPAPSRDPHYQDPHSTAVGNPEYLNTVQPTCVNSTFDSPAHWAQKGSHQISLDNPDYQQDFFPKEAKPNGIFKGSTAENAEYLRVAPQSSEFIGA
Chain of EGFR del19/C797S (P00533 with tags, fused parts or gaps DEL746-750/C797S): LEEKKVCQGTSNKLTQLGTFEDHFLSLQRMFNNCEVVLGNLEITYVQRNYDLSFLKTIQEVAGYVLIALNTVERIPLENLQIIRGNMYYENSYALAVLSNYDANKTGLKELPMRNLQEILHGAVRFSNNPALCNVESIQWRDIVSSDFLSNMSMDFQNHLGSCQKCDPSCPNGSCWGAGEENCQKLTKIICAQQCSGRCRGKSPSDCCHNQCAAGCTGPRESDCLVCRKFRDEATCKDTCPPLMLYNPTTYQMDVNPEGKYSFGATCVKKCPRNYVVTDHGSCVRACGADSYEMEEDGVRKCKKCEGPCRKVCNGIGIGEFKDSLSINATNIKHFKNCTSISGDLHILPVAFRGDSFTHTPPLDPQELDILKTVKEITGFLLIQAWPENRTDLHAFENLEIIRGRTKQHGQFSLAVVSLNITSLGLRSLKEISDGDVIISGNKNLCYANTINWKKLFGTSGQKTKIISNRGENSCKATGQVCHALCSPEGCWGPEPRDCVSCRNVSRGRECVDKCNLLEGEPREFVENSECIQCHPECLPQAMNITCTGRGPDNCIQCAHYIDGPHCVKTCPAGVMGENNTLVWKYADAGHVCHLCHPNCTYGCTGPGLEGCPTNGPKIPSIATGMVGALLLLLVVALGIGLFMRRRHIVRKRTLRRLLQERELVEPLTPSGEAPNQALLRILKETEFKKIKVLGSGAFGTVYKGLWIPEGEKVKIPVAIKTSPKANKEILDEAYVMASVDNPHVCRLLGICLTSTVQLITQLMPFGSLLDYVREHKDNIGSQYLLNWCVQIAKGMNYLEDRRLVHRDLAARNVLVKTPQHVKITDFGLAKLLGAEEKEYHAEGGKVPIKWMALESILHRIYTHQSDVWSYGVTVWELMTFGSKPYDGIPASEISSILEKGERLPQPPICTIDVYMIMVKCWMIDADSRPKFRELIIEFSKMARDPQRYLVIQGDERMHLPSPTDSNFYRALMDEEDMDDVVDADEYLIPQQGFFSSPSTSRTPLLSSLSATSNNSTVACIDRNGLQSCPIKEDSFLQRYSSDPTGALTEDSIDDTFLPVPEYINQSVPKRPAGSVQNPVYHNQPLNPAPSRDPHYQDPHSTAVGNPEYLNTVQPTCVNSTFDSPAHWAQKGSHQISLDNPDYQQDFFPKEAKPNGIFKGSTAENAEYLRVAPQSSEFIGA
Chain of EGFR L858R/C797S (P00533 25-1210 C797S/L858R): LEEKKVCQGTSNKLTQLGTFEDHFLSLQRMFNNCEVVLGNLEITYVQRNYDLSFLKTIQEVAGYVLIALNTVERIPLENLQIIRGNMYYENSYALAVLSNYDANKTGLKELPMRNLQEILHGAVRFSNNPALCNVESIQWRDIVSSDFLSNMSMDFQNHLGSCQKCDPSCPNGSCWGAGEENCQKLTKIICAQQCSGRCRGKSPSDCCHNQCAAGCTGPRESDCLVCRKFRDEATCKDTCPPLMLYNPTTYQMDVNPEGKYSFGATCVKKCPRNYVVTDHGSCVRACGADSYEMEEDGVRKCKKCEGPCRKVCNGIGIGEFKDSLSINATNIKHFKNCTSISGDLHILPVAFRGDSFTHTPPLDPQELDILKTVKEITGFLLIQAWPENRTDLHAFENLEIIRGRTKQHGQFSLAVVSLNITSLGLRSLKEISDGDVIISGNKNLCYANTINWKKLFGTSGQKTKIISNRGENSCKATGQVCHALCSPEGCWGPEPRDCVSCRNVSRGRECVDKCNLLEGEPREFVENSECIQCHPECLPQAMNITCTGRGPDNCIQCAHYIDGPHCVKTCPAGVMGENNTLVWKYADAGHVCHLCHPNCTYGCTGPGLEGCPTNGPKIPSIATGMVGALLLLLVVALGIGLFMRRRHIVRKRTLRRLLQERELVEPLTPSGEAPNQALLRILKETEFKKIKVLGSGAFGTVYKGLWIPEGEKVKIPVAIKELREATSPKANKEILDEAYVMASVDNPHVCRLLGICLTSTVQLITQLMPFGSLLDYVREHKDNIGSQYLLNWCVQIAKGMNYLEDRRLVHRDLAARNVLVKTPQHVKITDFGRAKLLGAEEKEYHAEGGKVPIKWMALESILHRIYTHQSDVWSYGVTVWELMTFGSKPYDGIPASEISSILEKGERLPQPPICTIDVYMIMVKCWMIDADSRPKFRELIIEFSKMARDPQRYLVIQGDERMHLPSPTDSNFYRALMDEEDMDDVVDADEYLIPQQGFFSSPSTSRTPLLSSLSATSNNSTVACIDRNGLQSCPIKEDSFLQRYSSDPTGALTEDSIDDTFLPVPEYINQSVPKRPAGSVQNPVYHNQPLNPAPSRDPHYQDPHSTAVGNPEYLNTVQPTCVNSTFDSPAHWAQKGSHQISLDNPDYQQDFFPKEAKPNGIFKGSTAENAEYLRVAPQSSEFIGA
Chain of EGFR wildtype (P00533 25-1210): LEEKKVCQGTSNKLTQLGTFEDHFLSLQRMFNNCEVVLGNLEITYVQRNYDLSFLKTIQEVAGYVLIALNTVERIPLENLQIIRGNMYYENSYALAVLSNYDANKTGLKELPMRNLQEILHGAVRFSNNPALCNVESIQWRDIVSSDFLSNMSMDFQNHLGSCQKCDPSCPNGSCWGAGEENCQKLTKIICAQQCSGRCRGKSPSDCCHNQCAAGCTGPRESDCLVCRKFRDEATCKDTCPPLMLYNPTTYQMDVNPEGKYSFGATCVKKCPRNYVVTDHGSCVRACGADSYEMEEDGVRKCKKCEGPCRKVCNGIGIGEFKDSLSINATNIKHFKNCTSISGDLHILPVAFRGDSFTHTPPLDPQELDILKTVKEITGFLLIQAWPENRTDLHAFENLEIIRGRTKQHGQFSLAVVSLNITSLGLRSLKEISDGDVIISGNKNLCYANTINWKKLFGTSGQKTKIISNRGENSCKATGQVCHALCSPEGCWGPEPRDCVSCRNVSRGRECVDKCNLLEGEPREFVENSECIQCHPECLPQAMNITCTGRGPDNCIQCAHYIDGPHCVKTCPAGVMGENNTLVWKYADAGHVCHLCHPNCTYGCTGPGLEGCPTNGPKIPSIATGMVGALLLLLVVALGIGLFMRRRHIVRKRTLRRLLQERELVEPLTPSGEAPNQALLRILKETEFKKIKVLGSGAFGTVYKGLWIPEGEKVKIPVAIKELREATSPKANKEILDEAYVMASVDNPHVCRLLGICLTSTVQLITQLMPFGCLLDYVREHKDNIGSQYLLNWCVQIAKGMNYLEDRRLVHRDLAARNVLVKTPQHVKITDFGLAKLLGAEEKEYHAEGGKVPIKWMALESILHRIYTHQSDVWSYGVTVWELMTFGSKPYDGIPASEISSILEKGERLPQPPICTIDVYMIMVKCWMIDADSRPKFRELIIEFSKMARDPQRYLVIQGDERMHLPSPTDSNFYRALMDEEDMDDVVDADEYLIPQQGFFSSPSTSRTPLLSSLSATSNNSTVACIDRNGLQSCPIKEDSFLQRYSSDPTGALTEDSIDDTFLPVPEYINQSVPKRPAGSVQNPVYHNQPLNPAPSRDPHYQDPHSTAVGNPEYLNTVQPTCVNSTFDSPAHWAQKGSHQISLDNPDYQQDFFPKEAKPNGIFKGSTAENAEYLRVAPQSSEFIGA

| SMILES | IC50 (EGFR L858R/C797S; [1]) [nM] | IC50 (EGFR L858R/T790M/C797S; [2]) [nM] | IC50 (EGFR del19/C797S; [3]) [nM] | IC50 (EGFR del19/T790M/C797S; [4]) [nM] | IC50 (EGFR wildtype; [5]) [nM] | IC50 (EGFR L858R/C797S; [6]) [nM] | IC50 (EGFR L858R/T790M/C797S; [7]) [nM] | IC50 (EGFR del19/C797S; [8]) [nM] | IC50 (EGFR del19/T790M/C797S; [9]) [nM] | IC50 (EGFR wildtype; [10]) [nM] | IC50 (EGFR L858R/T790M/C797S; [14]) [nM] | IC50 (EGFR del19/C797S; [15]) [nM] | IC50 (EGFR del19/T790M/C797S; [16]) [nM] | IC50 (EGFR wildtype; [17]) [nM] | further results |
| --- | --- | --- | --- | --- | --- | --- | --- | --- | --- | --- | --- | --- | --- | --- | --- |
| C[C@]1(O)CC[C@@H](Nc2cc(Nc3ccnc(-c4cnn(S(=O)(=O)C5CC5)c4)n3)ncc2-c2cnc(OC3COC3)cn2)CC1 [Example 150, (1s,4s)-4-((2-((2-(1-(Cyclopropylsulfonyl)-1H-pyrazol-4-yl)pyrimidin-4-yl)amino)-5-(5-(oxetan-3-yloxy)pyrazin-2-yl)pyridin-4-yl)amino)-1-methylcyclohexan-1-ol] |  |  |  |  |  | 0.4 | 0.1 | 0.5 | 0.2 | 6.2 |  |  |  |  |  |
| FC(F)Cn1cc(-c2nccc(Nc3cc(N[C@H]4CC[C@@H](F)CC4)c(-c4ccc(CN5CCOCC5)cn4)cn3)n2)cn1 [Example 136, N^6′-(2-(1-(2,2-difluoroethyl)-1H-pyrazol-4-yl)pyrimidin-4-yl)-N^4′-((1s,4s)-4-fluorocyclohexyl)-5-(morpholinomethyl)-[2,3′-bipyridine]-4′,6′-diamine] |  |  |  |  |  | 6.4 | 0.2 | 19.1 | 0.5 | 69.8 |  |  |  |  |  |
| O=S(=O)(C1CC1)n1cc(-c2nccc(Nc3cc(N[C@H]4CC[C@@H](CO)CC4)c(-c4ccc(OCCO)cn4)cn3)n2)cn1 [Example 206, 2-((6′-((2-(1-(Cyclopropylsulfonyl)-1H-pyrazol-4-yl)pyrimidin-4-yl)amino)-4′-(((1s,4s)-4-(hydroxymethyl)cyclohexyl)amino)-[2,3′-bipyridin]-5-yl)oxy)ethan-1-ol] | 0.4 | 0.3 | 0.7 | 0.6 | 1.2 |  |  |  |  |  |  |  |  |  | IC50 (EGFR L858R/C797S; IC50 L858R/C797S, 100 μM ATP): 2.4 nM; IC50 (EGFR L858R/T790M/C797S; [11]): 0.4 nM; IC50 (EGFR del19/C797S; IC50 del19/C797S, 100 μM ATP): 0.6 nM; IC50 (EGFR del19/T790M/C797S; [12]): 0.9 nM; IC50 (EGFR wildtype; IC50 WT, 100 μM ATP): 348 nM |
| CN(C)C[C@H]1CC[C@@H](Nc2cc(Nc3ccnc(-c4cnn(S(=O)(=O)C5CC5)c4)n3)ncc2-c2cc(N3CCC(F)(F)CC3)ccn2)CC1 [Example 101, N^6′-(2-(1-(Cyclopropylsulfonyl)-1H-pyrazol-4-yl)pyrimidin-4-yl)-4-(4,4-difluoropiperidin-1-yl)-N^4′-((1s,4s)-4-((dimethylamino)methyl)cyclohexyl)-[2,3′-bipyridine]-4′,6′-diamine] |  |  |  |  |  | 2.1 | 0.4 | 2.1 | 1.7 | 2.2 | 0.7 | 2.4 | 0.9 | 575 | IC50 (EGFR L858R/C797S; [13]): 14.4 nM |
| Cc1ccc(-c2cnc(Nc3ccnc(-c4cnn(S(=O)(=O)C5CC5)c4)n3)cc2N[C@H]2CC[C@@](C)(O)CC2)nn1 [Example 52, (1s,4s)-4-((2-((2-(1-(Cyclopropylsulfonyl)-1H-pyrazol-4-yl)pyrimidin-4-yl)amino)-5-(6-methylpyridazin-3-yl)pyridin-4-yl)amino)-1-methylcyclohexan-1-ol] |  |  |  |  |  | 0.6 | 0.1 | 0.5 | 0.3 | 3 | 0.3 | 0.6 | 0.5 | > 10000 |  |
| C[C@]1(O)CC[C@@H](Nc2cc(Nc3ccnc(-c4cnn(S(=O)(=O)C5CC5)c4)n3)ncc2-c2cccc(CO)n2)CC1 [Example 27, (1s,4s)-4-((6′-((2-(1-(Cyclopropylsulfonyl)-1H-pyrazol-4-yl)pyrimidin-4-yl)amino)-6-(hydroxymethyl)-[2,3′-bipyridin]-4′-yl)amino)-1-methylcyclohexan-1-ol] |  |  |  |  |  | 0.1 | 0.2 | 0.1 | 0.3 | 1.7 | 0.4 | 0.3 | 0.3 | 370 | IC50 (EGFR L858R/C797S; [13]): 1.6 nM |
| CC(C)(O)[C@H]1CC[C@@H](Nc2cc(Nc3ccnc(-c4cnn(S(=O)(=O)C5CC5)c4)n3)ncc2-c2ccc(N3CCOCC3)cn2)CC1 [Example 45, 2-((1s,4s)-4-((6′-((2-(1-(Cyclopropylsulfonyl)-1H-pyrazol-4-yl)pyrimidin-4-yl)amino)-5-morpholino-[2,3′-bipyridin]-4′-yl)amino)cyclohexyl)propan-2-ol] |  |  |  |  |  |  |  |  |  |  | 2.6 | 1.7 | 1.7 | 602 | IC50 (EGFR L858R/C797S; [13]): 4.2 nM |
| CC(C)Nc1cc(Nc2ccnc(-c3cnn(S(=O)(=O)C4CC4)c3)n2)ncc1-c1ccc(N2CCOCC2)cn1 [Example 124, N^6′-(2-(1-(Cyclopropylsulfonyl)-1H-pyrazol-4-yl)pyrimidin-4-yl)-N^4′-isopropyl-5-morpholino-[2,3′-bipyridine]-4′,6′-diamine] |  |  |  |  |  | 0.4 | 0.4 | 3.3 | 0.3 | 12.7 |  |  |  |  |  |
| O=S(=O)(C1CC1)n1cc(-c2nccc(Nc3cc(N[C@H]4CC[C@@H](NCCF)CC4)c(-c4cccc(F)n4)cn3)n2)cn1 [Example 273, N^6′-(2-(1-(Cyclopropylsulfonyl)-1H-pyrazol-4-yl)pyrimidin-4-yl)-6-fluoro-N^4′-((1s,4s)-4-((2-fluoroethyl)amino)cyclohexyl)-[2,3′-bipyridine]-4′,6′-diamine] |  |  |  |  |  |  |  |  |  |  |  |  |  |  | IC50 (EGFR L858R/C797S; IC50 L858R/C797S, 100 μM ATP): 8.6 nM; IC50 (EGFR L858R/T790M/C797S; [11]): 0.3 nM; IC50 (EGFR del19/C797S; IC50 del19/C797S, 100 μM ATP): 1 nM; IC50 (EGFR del19/T790M/C797S; [12]): 0.2 nM; IC50 (EGFR wildtype; IC50 WT, 100 μM ATP): 2230 nM |

Continued, in another order:

| IC50 (EGFR L858R/C797S; [1]) [nM] | IC50 (EGFR L858R/T790M/C797S; [2]) [nM] | IC50 (EGFR del19/C797S; [3]) [nM] | IC50 (EGFR del19/T790M/C797S; [4]) [nM] | IC50 (EGFR wildtype; [5]) [nM] | IC50 (EGFR L858R/C797S; [6]) [nM] | IC50 (EGFR L858R/T790M/C797S; [7]) [nM] | IC50 (EGFR del19/C797S; [8]) [nM] | IC50 (EGFR del19/T790M/C797S; [9]) [nM] | IC50 (EGFR wildtype; [10]) [nM] | IC50 (EGFR L858R/T790M/C797S; [14]) [nM] | IC50 (EGFR del19/C797S; [15]) [nM] | IC50 (EGFR del19/T790M/C797S; [16]) [nM] | IC50 (EGFR wildtype; [17]) [nM] | SMILES | further results |
| --- | --- | --- | --- | --- | --- | --- | --- | --- | --- | --- | --- | --- | --- | --- | --- |
| 0.3 | 0.1 | 0.2 | 0.5 | 0.2 |  |  |  |  |  |  |  |  |  | CN1CCC(Oc2ccc(-c3cnc(Nc4ccnc(-c5cnn(S(=O)(=O)C6CC6)c5)n4)cc3N[C@H]3CC[C@@H](CO)CC3)nc2)CC1 [Example 251, ((1s,4s)-4-((6′-((2-(1-(Cyclopropylsulfonyl)-1H-pyrazol-4-yl)pyrimidin-4-yl)amino)-5-((1-methylpiperidin-4-yl)oxy)-[2,3′-bipyridin]-4′-yl)amino)cyclohexyl)methanol] |  |
| 0.4 | 0.2 | 0.4 | 0.4 | 0.3 |  |  |  |  |  |  |  |  |  | CN1CCC(Oc2ccc(-c3cnc(Nc4ccnc(-c5cnn(S(=O)(=O)C6CC6)c5)n4)cc3N[C@H]3CC[C@@](C)(O)CC3)nc2)CC1 [Example 250, (1s,4s)-4-((6′-((2-(1-(Cyclopropylsulfonyl)-1H-pyrazol-4-yl)pyrimidin-4-yl)amino)-5-((1-methylpiperidin-4-yl)oxy)-[2,3′-bipyridin]-4′-yl)amino)-1-methylcyclohexan-1-ol] |  |
| 10.1 | 3.7 | 17.6 | 4.5 | 89.8 |  |  |  |  |  |  |  |  |  | CN(C)S(=O)(=O)n1cc(-c2nccc(Nc3cc(N[C@H]4CC[C@@](C)(O)CC4)c(-c4ccc(CC(F)(F)F)cn4)cn3)n2)cn1 [Example 296, 4-(4-((4′-(((1s,4s)-4-Hydroxy-4-methylcyclohexyl)amino)-5-(2,2,2-trifluoroethyl)-[2,3′-bipyridin]-6′-yl)amino)pyrimidin-2-yl)-N,N-dimethyl-1H-pyrazole-1-sulfonamide] |  |
| 2.3 | 0.5 |  | 0.5 | 3.7 |  |  |  |  |  |  |  |  |  | CC(C)(F)c1ccc(-c2cnc(Nc3ccnc(-c4cnn(S(=O)(=O)C5CC5)c4)n3)cc2N[C@H]2CC[C@@](C)(O)CC2)nc1 [Example 291, (1s,4s)-4-((6′-((2-(1-(Cyclopropylsulfonyl)-1H-pyrazol-4-yl)pyrimidin-4-yl)amino)-5-(2-fluoropropan-2-yl)-[2,3′-bipyridin]-4′-yl)amino)-1-methylcyclohexan-1-ol] | IC50 (EGFR L858R/C797S; IC50 L858R/C797S, 100 μM ATP): 2.8 nM; IC50 (EGFR L858R/T790M/C797S; [11]): 1 nM; IC50 (EGFR del19/C797S; IC50 del19/C797S, 100 μM ATP): 4.9 nM; IC50 (EGFR wildtype; IC50 WT, 100 μM ATP): > 10000 nM |
